Measured values taken from US20160038549A1, “METHOD FOR PROMOTING INSULIN SECRETION BY USING COMPOUNDS AND EXTRACTS ISOLATED FROM ANTRODIA CAMPHORATA” (priority 2014, published 2016).

Legend:
[1] = test system: MIN6 mouse beta insulinoma cell line; assay: MTT cell viability assay with thapsigargin (TG) challenge; type: cell-based; settings: then TG
Procedure: MIN6 mouse beta insulinoma cell line was analyzed by MTT cell viability assay respectively. The MIN6 mouse insulinoma beta cell line is an insulinoma cell line which comes from sarcoma virus 40 transfecting non-obese diabetic mice (NOD mice) by T cells, and is a mouse insulinoma cell line having physiological characteristics of insulinoma beta cell.
MIN6 cell line was cultured in a high glucose DMEM with 15% fetal bovine serum, 50 μmol/L mercaptoethanol, 100 U/ml penicillin, and […] streptomycin. The medium was replaced the next day.
MIN6 cells were prepared for 1×10^5/ml cell liquid suspensions, and then the suspensions were incubated in a 96-well plate with 100 μl in each well. After cell attachment, the medium was replaced with a 0.2% serum medium and then the cells were cultured for 24 hours in order to keep the cells at rest. Then, 200 mg/L BSA medium and the extracts/compounds from Antrodia camphorata with a variety of predetermined concentrations (experimental groups) were added to react for 24 hours, respectively, and then thapsigargin was added to react for 24 hours. A control group was prepared by adding 100 μl medium and then incubating in a constant temperature incubator at 37° C., 5% CO2 for a period of time. 4 hours before the end of the incubating process, 20 μl MTT (0.5 mg/ml) was added into each well, the samples continued being incubated for 4 hours, and then crystalline dissolved fully with vibration. The absorbance (A) at wavelength of 570 nm was determined respectively by a reader. Then the cell viability was calculated by the following formula: the cell viability=(the average of A570 in the experimental group/the average of A570 in the control group)×100%.
Referring to FIG. 1A, the extraction from ANCA-D in different concentrations (6.25, 12.5, 25, 50, 100 ng/ml) was added into cells in each group respectively to react for 24 hours. Then, thapsigargin (TG) was added to react for 24 hours and the cell viability of each group was determined after the reaction. Thapsigargin is an endoplasmic reticulum calcium pump inhibitor which can promote depletion of calcium ions from the endoplasmic reticulum and then open store-operated channels to lead the calcium ions to increase in cells. Then, insulin secretion could be inhibited.

MIN6 cell = assay: Glucose-stimulated insulin secretion (GSIS) assay, insulin by ELISA; type: cell-based, mouse
Procedure: In order to examine the influences of the aforementioned extracts and compounds from Antrodia camphorata for insulin secretion, GSIS assay was performed with MIN6 cell. First, MIN6 cell was incubated in 1×10^5/ml concentration in a 24-well plate and a 15% FBS DMEM medium at 37° C., 5% CO2. After cell attachment, 200 mg/1 BSA medium and the extracts and compounds from Antrodia camphorata in different concentrations were added into each well to react for 24 hours. 5.5 mM/16.7 mM glucose was further added as stimulation and then insulin was determined by ELISA. In the same time, total cellular protein in each well was extracted for a calibration by determining protein concentration with BCA assay.

SMILES: COC1=C(OC)[C@H](O)[C@H](C/C=C(\C)CC/C=C(\C)CC(O)C=C(C)C)[C@@H](C)C1=O (stereo partly shown) [Antrocamol LT1, 4-hydroxy-5-[9-hydroxy-3,7,11-trimethyldodeca-2,6,10-trienyl]-2,3-dimethoxy-6-methyl-cyclohex-2-enone]
- MIN6 cell viability ([1]; concentrations of 250, 500, and 1000 ng/ml, compared with only-TG control, FIG. 2A): increasing tendency was more significant
- MIN6 cell viability ([1]; pretreated with compound, compared with only-TG control, overall, FIG. 2A): could increase the MIN6 cell viability
- insulin secretion relative to control group (MIN6 cell; pretreated with 500 ng/ml, higher glucose concentration 16.7 mM, FIG. 3C): about 2 times
- insulin secretion (MIN6 cell; pretreated with 500 ng/ml, lower glucose concentration 5.5 mM, FIG. 3C): slightly increased
- insulin secretion (MIN6 cell; pretreated with 1000 ng/ml and 500 ng/ml, 5.5 mM/16.7 mM glucose, FIG. 3B): slightly increasing tendency
- insulin secretion (MIN6 cell; pretreated with 1000 ng/ml, higher glucose concentration 16.7 mM, FIG. 3C): more obvious
- insulin secretion (MIN6 cell; pretreated with 1000 ng/ml, lower glucose concentration 5.5 mM, FIG. 3C): increasing tendency

SMILES: COC1=C(OC)[C@H](OC(C)=O)[C@H](C/C=C(\C)CC/C=C(\C)CC(O)C=C(C)C)[C@@H](C)C1=O (stereo partly shown) [Antrocamol LT2, 4-acetoxy-5-[9-hydroxy-3,7,11-trimethyldodeca-2,6,10-trienyl]-2,3-dimethoxy-6-methyl-cyclohex-2-enone]
- MIN6 cell viability ([1]; concentration higher than 50 ng/ml, FIG. 2B): began to slightly decrease
- MIN6 cell viability ([1]; lower concentrations, especially 6.25~25 ng/ml, compared with only-TG control, FIG. 2B): significantly increase the MIN6 cell viability
- effect of promoting insulin secretion (MIN6 cell; pretreated with 50 ng/ml, FIG. 3B): not observed
- insulin secretion relative to control group (MIN6 cell; pretreated with 100 ng/ml, 5.5 mM/16.7 mM glucose, FIG. 3B): about 2 times

SMILES: COC1=C(OC)[C@H](O)[C@H](C/C=C(\C)CC/C=C(\C)C/C=C/C(C)(C)O)[C@@H](C)C1=O [Antrocamol LT3, (4R,5R,6R)-4-hydroxy-5-[(2E,6E,9E)-11-hydroxy-3,7,11-trimethyldodeca-2,6,9-trienyl]-2,3-dimethoxy-6-methylcyclohex-2-enone]
- MIN6 cell viability ([1]; concentration of 1000 ng/ml, FIG. 2C): began increasing
- MIN6 cell viability ([1]; concentrations lower than 500 ng/ml, compared with only-TG group, FIG. 2C): did not significantly influence the MIN6 cell viability
- effect for promoting insulin secretion (MIN6 cell; high glucose, FIG. 3B): observed in high glucose
- effect for promoting insulin secretion (MIN6 cell; low glucose, FIG. 3B): not low glucose
- insulin secretion (MIN6 cell; pretreated with 250 ng/ml, 5.5 mM/16.7 mM glucose, FIG. 3B): slightly tendency for promoting insulin secretion
